The series in a line: Effect of plasma handling (thawed, about 2 hours at room temperature, re-frozen: RT2h-FT1) on NI of Ng peptides. In kind it is in vitro ADME, human. As to conditions: FIG. 1. On the procedure: Among the 161 samples, samples obtained by thawing cryopreserved samples, placing the samples at room temperature for about 2 hours, and then re-freezing the samples are also included. In order to investigate the influence of this process on the measured value of the Ng peptide, the Ng peptide to be analyzed was evaluated using a part of the sample. In the measurement of the sample that was thawed, left at room temperature for about 2 hours, and then re-frozen (sample under the RT2h-FT1 condition), the above [purification] [mass spectrometry] was performed except that SIL-Ng50-78 was used as the internal standard peptide, and the internal standard peptide was diluted with the first buffer. The above [purification] [mass spectrometry] was also performed on the samples not subjected to the RT2h-FT1 process (samples under control conditions). For these, data processing was performed using data obtained by simultaneously measuring SIL-Ng50-78 and SIL-Ng45-75 and SIL-Ng24-75 such that the measured value of the RT2h-FT1 condition normalized with SIL-Ng50-78 was NI normalized with SIL-Ng45-75 and SIL-Ng24-75.
From this, it can be seen that the decomposition of the Ng peptide proceeds by the time for which the plasma is stored in a thawed state and/or freeze-thawing. […]

Peptide text beside a SMILES is read from it.

As to `CC[C@H](C)[C@H](NC(=O)[C@@H](N)CCCCN)C(=O)N[C@@H](CCCCN)C(=O)N[C@@H](CO)C(=O)NCC(=O)N[C@@H](CCC(=O)O)C(=O)N[C@@H](CCCNC(=N)N)C(=O)NCC(=O)N[C@@H](CCCNC(=N)N)C(=O)N[C@@H](CCCCN)C(=O)NCC(=O)N1CCC[C@H]1C(=O)NCC(=O)N1CCC[C@H]1C(=O)NCC(=O)NCC(=O)N1CCC[C@H]1C(=O)NCC(=O)NCC(=O)N[C@@H](C)C(=O)NCC(=O)N[C@H](C(=O)N[C@@H](C)C(=O)N[C@@H](CCCNC(=N)N)C(=O)NCC(=O)NCC(=O)N[C@@H](C)C(=O)NCC(=O)NCC(=O)NCC(=O)N1CCC[C@H]1C(=O)O)C(C)C` [Ng45-75] (H-KIKSGERGRKGPGPGGPGGAGVARGGAGGGP-OH), the “change of NI under the RT2h-FT1 condition compared with the Control condition (decomposition in plasma)” value is given as “smaller decrease width due to decomposition than the other Ng peptides”.

As for `CC(C)[C@H](NC(=O)CNC(=O)[C@H](C)NC(=O)CNC(=O)CNC(=O)[C@@H]1CCCN1C(=O)CNC(=O)CNC(=O)[C@@H]1CCCN1C(=O)CNC(=O)[C@@H]1CCCN1C(=O)CNC(=O)[C@H](CCCCN)NC(=O)[C@H](CCCNC(=N)N)NC(=O)CNC(=O)[C@H](CCCNC(=N)N)NC(=O)[C@@H](N)CCC(=O)O)C(=O)N[C@@H](C)C(=O)N[C@@H](CCCNC(=N)N)C(=O)NCC(=O)NCC(=O)N[C@@H](C)C(=O)NCC(=O)NCC(=O)NCC(=O)N1CCC[C@H]1C(=O)O` [Ng50-75] (H-ERGRKGPGPGGPGGAGVARGGAGGGP-OH), the “change of NI under the RT2h-FT1 condition compared with the Control condition (decomposition in plasma)” value is reported as “smaller decrease width due to decomposition than the other Ng peptides”.

These data come from patent publication EP4679096A1, “BIOMARKERS AND METHOD FOR ESTIMATING BRAIN NEURODEGENERATIVE CONDITION” (SHIMADZU CORPORATION, priority 2023, dated 2024).
